Measurements as given in ChEMBL document CHEMBL1201862, “PubChem BioAssay data set” (2004).
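96-well plates; 48 h exposure; 5 concentrations. Endpoints by linear interpolation between flanking doses. Not reached: highest tested concentration assigned. GI50: concentration for 50% inhibition of growth.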 The source made the active and inactive calls. Rule as the data show it: active = GI50 up to about 1.1 µM and inactive = higher.

Tests used:
Assay in all cases: inhibition of tumour cell growth, NCI panel, 48 h
A549 = tested on: A549
MCF7 = tested on: MCF7
DU-145 = tested on: DU-145
COLO 205 = tested on: COLO 205
Hs-578T = tested on: Hs-578T
CCRF-CEM = tested on: CCRF-CEM
SF-268 = tested on: SF-268
SN12C = tested on: SN12C
SK-OV-3 = tested on: SK-OV-3
SF-295 = tested on: SF-295
MDA-MB-231 = tested on: MDA-MB-231
EKVX = tested on: EKVX
HT-29 = tested on: HT-29
UACC-62 = tested on: UACC-62
NCI-H522 = tested on: NCI-H522
NCI-H226 = tested on: NCI-H226
TK-10 = tested on: TK-10
U-251 = tested on: U-251
SF-539 = tested on: SF-539

Measured: GI50

Cc1ccc(N2C=Nn3c(nc4sc5c(c4c3=O)CCCC5)C2)cc1
inactive: A549 47.4 µM | MCF7 38.3 µM | DU-145 69.3 µM | COLO 205 67.8 µM | Hs-578T 28.1 µM | CCRF-CEM 45.2 µM | SF-268 83 µM | SN12C 63.8 µM | SK-OV-3 > 100 µM | SF-295 44.8 µM | MDA-MB-231 43.6 µM | EKVX 80 µM | HT-29 47.1 µM | UACC-62 > 100 µM | NCI-H522 39.1 µM | NCI-H226 55 µM | TK-10 86.1 µM | U-251 46.7 µM

CN(CCNC(=O)c1cn(C)c2c1ccc1ccccc12)CCNC(=O)c1cn(C)c2c1ccc1ccccc12
inactive: A549 3.59 µM | MCF7 1.51 µM | DU-145 2.1 µM | Hs-578T 2.18 µM | CCRF-CEM 2.44 µM | SF-539 1.76 µM | SF-268 2.69 µM | SN12C 2.64 µM | SK-OV-3 8.04 µM | SF-295 3.05 µM | MDA-MB-231 1.47 µM | EKVX 2.37 µM | HT-29 6.05 µM | UACC-62 2.7 µM | NCI-H226 5.55 µM | TK-10 1.92 µM | U-251 2.04 µM

COc1ccc(/C=C(/c2ccc(OC)cc2)c2c(Cl)cc(Cl)c(/C(=C\c3ccc(OC)cc3)c3ccc(OC)cc3)c2/N=N/c2ccccc2)cc1
inactive: A549 > 100 µM | MCF7 62.1 µM | DU-145 > 100 µM | COLO 205 > 100 µM | Hs-578T > 100 µM | CCRF-CEM 50.1 µM | SF-539 34.4 µM | SF-268 > 100 µM | SN12C > 100 µM | SK-OV-3 > 100 µM | SF-295 > 100 µM | MDA-MB-231 > 100 µM | EKVX > 100 µM | HT-29 > 100 µM | UACC-62 > 100 µM | NCI-H522 > 100 µM | TK-10 > 100 µM | U-251 66.4 µM

COC(C(O)CO)C(O)C(O)C(=O)NNc1ccccc1 (stereo unspecified)
inactive: A549 > 100 µM | MCF7 39.2 µM | DU-145 > 100 µM | COLO 205 11.7 µM | Hs-578T > 100 µM | CCRF-CEM 42.7 µM | SF-539 22.4 µM | SF-268 23.3 µM | SN12C > 100 µM | SK-OV-3 > 100 µM | SF-295 21 µM | MDA-MB-231 > 100 µM | EKVX 21.7 µM | HT-29 > 100 µM | UACC-62 5.33 µM | NCI-H522 > 100 µM | TK-10 > 100 µM | U-251 > 100 µM

NC1=NCC(CN2CCOCC2)O1 (stereo unspecified)
inactive: A549 > 100 µM | MCF7 > 100 µM | DU-145 > 100 µM | COLO 205 > 100 µM | Hs-578T > 100 µM | CCRF-CEM > 100 µM | SF-539 > 100 µM | SF-268 > 100 µM | SN12C > 100 µM | SK-OV-3 > 100 µM | SF-295 > 100 µM | MDA-MB-231 > 100 µM | EKVX > 100 µM | HT-29 > 100 µM | UACC-62 > 100 µM | NCI-H522 > 100 µM | TK-10 > 100 µM | U-251 > 100 µM

COc1ccc(-c2c(/C=N/OCC(=O)O)c3sc4ccccc4n3c2/C=N/OCC(=O)O)cc1
inactive: A549 > 50 µM | MCF7 > 50 µM | DU-145 > 50 µM | COLO 205 > 50 µM | Hs-578T > 50 µM | CCRF-CEM > 50 µM | SF-268 > 50 µM | SN12C > 50 µM | SK-OV-3 > 50 µM | SF-295 > 50 µM | MDA-MB-231 > 50 µM | EKVX > 50 µM | HT-29 > 50 µM | UACC-62 > 50 µM | NCI-H522 > 50 µM | TK-10 > 50 µM | U-251 > 50 µM

O=C(CC(C(=O)c1cccs1)c1ccsc1)c1ccc(Cl)s1 (stereo unspecified)
inactive: A549 > 100 µM | MCF7 97.1 µM | DU-145 > 100 µM | COLO 205 > 100 µM | Hs-578T 60.1 µM | CCRF-CEM > 100 µM | SF-539 > 100 µM | SF-268 > 100 µM | SN12C > 100 µM | SK-OV-3 > 100 µM | MDA-MB-231 > 100 µM | EKVX 50.7 µM | HT-29 75.9 µM | UACC-62 99.3 µM | NCI-H226 > 100 µM | TK-10 > 100 µM | U-251 > 100 µM

Cc1ccc(/C=C2\CCS(=O)(=O)c3ccccc3C2=O)cc1
inactive: A549 35.6 µM | MCF7 11.9 µM | DU-145 14.2 µM | COLO 205 15.2 µM | Hs-578T 37.4 µM | CCRF-CEM 13.8 µM | SF-539 12.7 µM | SF-268 18.3 µM | SN12C 19.1 µM | SK-OV-3 21.7 µM | SF-295 19.2 µM | MDA-MB-231 16.9 µM | EKVX 17.6 µM | HT-29 17 µM | UACC-62 17.3 µM | NCI-H226 16.6 µM | TK-10 16.6 µM | U-251 14 µM
